“And” between values parts separate entries of the source, which are not always exact repeats. Equal values may be shown once. Read-outs that look alike come from different tables or passages of the source.
Experiments:
MDA-MB-231 cells [1] = experiment: CellTiter-Glo (CTG) ATP viability assay, MDA-MB-231; assay type: cell-based; details: for Min Asymptote: MDA-MB-231, Hill fit of luminescence normalized to solvent control, one line per replicate; for EC50: Homo sapiens; for DoR CTG: MDA-MB-231 cell line, depth of response
Procedure, shortened: (§1)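 Cell viability was read as ATP content by CellTiter-Glo luminescence after replacing media with reagent, shaking 20 min and resting 10 min. Signal was normalized to solvent control, and a 4-parameter Hill fit to the dose response gave EC50 and depth of response.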

BT-474 cells [2] = experiment: cells; details: for Max Asymptote / Min Asymptote: BT-474, 4-parameter Hill fit of mean SGR vs concentration, one line per replicate; for Hill Slope / log10(EC50): BT-474, Hill fit; for DoR QPI / ToR 20 μM: BT-474 cell line; for DoR QPI: depth of response; for ToR 20 μM: time of response at 20 μM; for EC50: Homo sapiens
Procedure, shortened: (§2)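 EC50 comes from 4-parameter Hill fits of average specific growth rate (mass accumulation) versus dose; a response is called only when the fit beats a flat line by F-test at p<0.01. Growth was tracked by differential phase contrast QPI for 24 or 72 h post-equilibration, followed by CTG ATP readout.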

MCF-7 cells = experiment: cells; details: for Max Asymptote / Min Asymptote: MCF-7, 4-parameter Hill fit of mean SGR vs concentration, one line per replicate; for Hill Slope / log10(EC50): MCF-7, Hill fit; for EC50: Homo sapiens; for DoR QPI / ToR 20 μM: MCF-7 cell line; for DoR QPI: depth of response; for ToR 20 μM: time of response at 20 μM
Procedure, shortened: as §2

MDA-MB-231 cells [3] = experiment: Quantitative phase imaging (QPI) growth response, MDA-MB-231; assay type: cell-based; set-up: DoR QPI: scale not given here; ToR 20 μM: unit not given here; details: for Max Asymptote / Min Asymptote: MDA-MB-231, 4-parameter Hill fit of mean SGR vs concentration, one line per replicate; for EC50: Homo sapiens; for DoR QPI / ToR 20 μM: MDA-MB-231 cell line; for DoR QPI: depth of response; for ToR 20 μM: time of response at 20 μM; for SGR (specific growth rate) / tD: one individual MDA-MB-231 cell, 2 μM doxorubicin
Procedure, shortened: as §2

BT-474 cells [4] = experiment: CellTiter-Glo (CTG) ATP viability assay, BT-474; assay type: cell-based; details: for Min Asymptote: BT-474, Hill fit of luminescence normalized to solvent control, one line per replicate; for DoR CTG: BT-474 cell line, depth of response; for EC50: Homo sapiens
Procedure, shortened: as §1

[5] = MDA-MB-231, 72 h, 72 h CTG, MDA-MB-231, Hill fit, read-out: log10(EC50) (converted)
[6] = MDA-MB-231, MDA-MB-231 cell line, CellTiter-Glo, read-out: EC50, CTG
[7] = 24 h QPI, EC50 in μM per Table 1
[8] = 72 h QPI, EC50 in μM per Table 1
[9] = BT-474, 24 h, read-out: log10(EC50), 24 h QPI, BT-474, Hill fit (converted), EC50 in μM per Table 1
[10] = BT-474, read-out: EC50, QPI, BT-474 cell line, QPI growth rate
[11] = MCF7, read-out: EC50, QPI, MCF-7 cell line, QPI growth rate
[12] = MDA-MB-231, MDA-MB-231 cell line, EC50 of the standard deviation, read-out: EC50, SD (converted)
[13] = MDA-MB-231, MDA-MB-231 cell line, QPI growth rate, read-out: EC50, QPI
[14] = BT-474, BT-474 cell line, CellTiter-Glo, read-out: EC50, CTG

## COc1cccc2c1C(=O)c1c(O)c3c(c(O)c1C2=O)C[C@@](O)(C(=O)CO)C[C@@H]3O[C@H]1C[C@H](N)[C@H](O)[C@H](C)O1 [Doxorubicin]
MDA-MB-231 cells [1]; 24 h CTG, MDA-MB-231, Hill fit
  Hill Slope: 1.125
MDA-MB-231 cells [1]; 24 h CTG
  Min Asymptote: 0.4072
MDA-MB-231 cells [1]; 72 h CTG, MDA-MB-231, Hill fit
  Hill Slope: 0.8064 and 0.7906
  log10(EC50): 0.5401
MDA-MB-231 cells [1]; 72 h CTG
  Min Asymptote: 0.01711 and 0.03777 (2×)
MDA-MB-231 cells [1]; MDA-MB-231, 24 h, 24 h CTG, MDA-MB-231, Hill fit, read-out: log10(EC50) (converted)
  EC50: 1.25 µM
MDA-MB-231 cells [1]; [5]
  EC50: 0.204 µM
MDA-MB-231 cells [1]; [6]
  EC50: 0.3 µM
MDA-MB-231 cells [1]; CellTiter-Glo
  DoR CTG: 1.0
BT-474 cells [2]; 24 h QPI
  Max Asymptote: 0.01297 and 0.01051 and 0.00993
  Min Asymptote: −0.001567 and −0.002506 and −0.002371
  Hill Slope: 1.5047 and 1.6529 and 1.3096
BT-474 cells [2]; [7]
  log10(EC50): −0.2827 and −0.2235
BT-474 cells [2]; 72 h QPI
  Max Asymptote: −0.00359 and −0.003807 and −0.003696
  Min Asymptote: 0.009626 and 0.009175 and 0.009318
  Hill Slope: 3.7081 and 4.795 and 3.6266
BT-474 cells [2]; [8]
  log10(EC50): 0.3361 and 0.3186
BT-474 cells [2]
  DoR QPI: 1.4
  ToR 20 μM: 3.4
BT-474 cells [2]; [9]
  EC50: 1.78 µM
BT-474 cells [2]; BT-474, 72 h, read-out: log10(EC50), 72 h QPI, BT-474, Hill fit (converted), EC50 in μM per Table 1
  EC50: 0.475 µM
BT-474 cells [2]; [10]
  EC50: 0.5 µM
BT-474 cells [2]; small cluster of BT-474 cells, 2 μM, 72 h
  cluster mass tracked over time: losing mass
MCF-7 cells; 24 h QPI
  Max Asymptote: 0.03024 and 0.03614 (2×)
  Hill Slope: 0.4225 and 0.5056
MCF-7 cells; [7]
  log10(EC50): 0.2581
MCF-7 cells; 72 h QPI
  Min Asymptote: 0.02487 and 0.02696 and 0.02807
  Hill Slope: 1.1171 and 1.2782 and 1.7872
MCF-7 cells; [8]
  log10(EC50): 0.7197 and 0.7012
MCF-7 cells; MCF7, 72 h, read-out: log10(EC50), 72 h QPI, MCF-7, Hill fit (converted), EC50 in μM per Table 1
  EC50: 0.235 µM
MCF-7 cells; [11]
  EC50: 0.2 µM
MCF-7 cells; MCF7, read-out: EC50, SD, MCF-7 cell line, EC50 of the standard deviation
  EC50: 11 µM
MCF-7 cells; MCF-7, 20 μM, highest dose tested
  SGR minimum (mean±standard deviation, SD): −0.003+0.004 h^−1
MCF-7 cells
  DoR QPI: 1.1
  ToR 20 μM: −1.3
MDA-MB-231 cells [3]; 24 h QPI
  Max Asymptote: 0.03123 and 0.03492 and 0.03444
  Min Asymptote: 0.002229 and 0.006476 and 0.003476
MDA-MB-231 cells [3]; 24 h QPI, MDA-MB-231, Hill fit
  Hill Slope: 1.1528 and 1.2328 and 1.1155
MDA-MB-231 cells [3]; 72 h QPI
  Max Asymptote: 0.0002323 and 0.002183
  Min Asymptote: 0.03291 and 0.03136
MDA-MB-231 cells [3]; 72 h QPI, MDA-MB-231, Hill fit
  Hill Slope: 0.9982 and 1.1886
MDA-MB-231 cells [3]; 72 h QPI, MDA-MB-231, Hill fit, EC50 in μM per Table 1
  log10(EC50): 1.0414
MDA-MB-231 cells [3]; MDA-MB-231, 72 h, 72 h QPI, MDA-MB-231, Hill fit, EC50 in μM per Table 1, read-out: log10(EC50) (converted)
  EC50: 0.0794 µM
MDA-MB-231 cells [3]; [12]
  EC50: 0.549 µM
MDA-MB-231 cells [3]; [13]
  EC50: 0.1 µM
MDA-MB-231 cells [3]; MDA-MB-231, 0.08 μM
  Hellinger distance of SGR distribution from control: greater than the threshold indicating a response
MDA-MB-231 cells [3]; MDA-MB-231, 0.4 μM
  Hellinger distance of SGR distribution from control: much greater Hellinger distance from the control
MDA-MB-231 cells [3]; MDA-MB-231, 20 μM, 72 h
  reduction of heterogeneity (SD of growth rates): fourfold
MDA-MB-231 cells [3]; MDA-MB-231, highest concentration, FIG. 21 F
  growth rate and heterogeneity over time: simultaneously decreases in growth rate and heterogeneity
MDA-MB-231 cells [3]; MDA-MB-231, middle concentrations, FIG. 21 C-E
  growth rate and heterogeneity over time: change in growth rate over time with little to no change in heterogeneity
MDA-MB-231 cells [3]
  DoR QPI: 1.0
  ToR 20 μM: −3.0
MDA-MB-231 cells [3]; abrupt decrease in mass during cell death
  SGR (specific growth rate): -0.217 h⁻¹
MDA-MB-231 cells [3]; first 10 h
  tD: 19 h
MDA-MB-231 cells [3]; first 10 h, robust growth
  SGR (specific growth rate): 0.0358 h⁻¹
MDA-MB-231 cells [3]; next 26 h
  tD: 66 h
MDA-MB-231 cells [3]; next 26 h, reduced growth
  SGR (specific growth rate): 0.0105 h⁻¹
MDA-MB-231 cells [3]; subsequent gradual loss of mass
  SGR (specific growth rate): -0.0033 h⁻¹
BT-474 cells [4]; 72 h CTG, BT-474, Hill fit
  Hill Slope: 8.999 and 8.652
  log10(EC50): 0.3455
BT-474 cells [4]; 72 h CTG
  Min Asymptote: 0.5407 (2×) and 0.5602
BT-474 cells [4]; CellTiter-Glo
  DoR CTG: 0.5
BT-474 cells [4]; BT-474, 72 h, 72 h CTG, BT-474, Hill fit, read-out: log10(EC50) (converted)
  EC50: 0.434 µM
BT-474 cells [4]; [14]
  EC50: 0.4 µM

## C[C@]12CC[C@@H]3c4ccc(O)cc4C[C@@H](CCCCCCCCC[S+]([O-])CCCC(F)(F)C(F)(F)F)[C@H]3[C@@H]1CC[C@@H]2O (some centres unmarked) [Fulvestrant]
MDA-MB-231 cells [1]; 72 h CTG, MDA-MB-231, Hill fit
  Hill Slope: 0.7641
MDA-MB-231 cells [1]; 72 h CTG
  Min Asymptote: 0.01999
MDA-MB-231 cells [1]; [5]
  EC50: 31.4 µM
MDA-MB-231 cells [1]; [6]
  EC50: 31.4 µM
MDA-MB-231 cells [1]; CellTiter-Glo
  DoR CTG: 1.0
BT-474 cells [2]; 24 h QPI
  Max Asymptote: 0.01059
  Min Asymptote: 0.007383
  Hill Slope: 0.5448
BT-474 cells [2]; 72 h QPI
  Max Asymptote: 0.006153 and 0.002199 and 0.003561
  Min Asymptote: 0.009854 and 0.008492 and 0.009456
BT-474 cells [2]
  DoR QPI: 0.6
  ToR 20 μM: 28.9
BT-474 cells [2]; [9]
  EC50: 13.7 µM
BT-474 cells [2]; [10]
  EC50: 11.6 µM
BT-474 cells [2]; BT-474, read-out: EC50, SD, BT-474 cell line, EC50 of the standard deviation
  EC50: 8.17 µM
MCF-7 cells; 24 h QPI
  Max Asymptote: 0.04169
  Min Asymptote: 0.02021
  Hill Slope: 0.4537
MCF-7 cells; 72 h QPI
  Max Asymptote: 0.01656 and 0.01573
  Min Asymptote: 0.02377 and 0.02811
  Hill Slope: 0.5562 and 0.7449
MCF-7 cells; MCF7, 24 h, read-out: log10(EC50), 24 h QPI, MCF-7, Hill fit (converted), EC50 in μM per Table 1
  EC50: 0.000875 µM
MCF-7 cells; [11]
  EC50: 0.2 µM
MCF-7 cells
  DoR QPI: 0.4
  ToR 20 μM: 23.2
MCF-7 cells; small cluster of MCF-7 cells, 20 μM, 10 h to 72 h
  cluster mass over time: grow slowly at the beginning and end the experiment with a lower mass than they started with
MDA-MB-231 cells [3]; 24 h QPI
  Max Asymptote: 0.02847
  Min Asymptote: 0.02401
MDA-MB-231 cells [3]; 24 h QPI, MDA-MB-231, Hill fit
  Hill Slope: 2.2482
MDA-MB-231 cells [3]; 72 h QPI
  Max Asymptote: 0.01423 and 0.00907
  Min Asymptote: 0.02796 and 0.03032
MDA-MB-231 cells [3]; 72 h QPI, MDA-MB-231, Hill fit
  Hill Slope: 1.492 and 0.9134
MDA-MB-231 cells [3]; MDA-MB-231, 24 h, 24 h QPI, MDA-MB-231, Hill fit, EC50 in μM per Table 1, read-out: log10(EC50) (converted)
  EC50: 3.43 µM
MDA-MB-231 cells [3]; [12]
  EC50: 3.32 µM
MDA-MB-231 cells [3]; [13]
  EC50: 11.4 µM
MDA-MB-231 cells [3]
  DoR QPI: 0.6
  ToR 20 μM: 14.4
BT-474 cells [4]; 72 h CTG
  Min Asymptote: 0.1608 (2×) and 0.8009
BT-474 cells [4]; CellTiter-Glo
  DoR CTG: 0.6
BT-474 cells [4]; [14]
  EC50: 1340 µM
